“And” between values parts separate entries of the source, which are not always exact repeats. Equal entries are not always repeated. The source made the active and inactive calls. How the source made its calls: active means viability on the fitted dose curve at most 10% of control; inactive means the rest.
System: KRAS patient-derived spheroids with HUVEC/MSC, viability
Experiment: Anticancer human tumor 941728-121-R-J1-PDC patient-derived lung adenocarcinoma cell line growth inhibition [KRAS2]
Settings: for viability, T/C: stronger effect = lower value
Description: Multicellular complex tumor spheroid response to RAS pathway inhibitors in combination with a targeted agents in patient-derived cell lines with oncogenic KRAS variants from multiple cancer types
A high-throughput screen of multi-cell type tumor spheroids was designed to identify active combinations of targeted small molecules and KRAS pathway inhibitors. Complex spheroids include a stromal component modeled by human endothelial cells (HUVEC) and fibroblasts modeled by human mesenchymal stem cells (MSCs). The concentration ranges selected for each drug and investigational agent were based upon clinically achievable concentrations if the clinical Cmax of the agent was known.
Compounds. The drugs and investigational agents: BI-3406 (NSC825286), BAY-293 (NSC824723), batoprotafib (TNO155; NSC825523), sotorasib (AMG 510; NSC818433), MRTX1257 (NSC819558), elimusertib (BAY 1895344; NSC800525), molibresib (GSK525762; NSC774829), temuterkib (LY3214996; NSC803410), venetoclax (NSC766270), alisertib (NSC759677), olaparib (NSC753686), talazoparib (NSC767125), erdafitinib (NSC781556), ipatasertib (NSC767898), cabozantinib (NSC761068), nintedanib (NSC756659), abemaciclib (NSC768073), docetaxel (NSC628503), trametinib (NSC758246), and sapanisertib (NSC764658) were obtained from the National Cancer Institute (NCI) Developmental Therapeutics Program Chemical Repository. The FDA-approved anticancer drug set is available from the Developmental Therapeutics Program. […] The stock solutions were prepared in dimethyl sulfoxide (DMSO, Sigma-Aldrich, St. Louis, MO, cat. D2650) at 800-fold the tested concentration and stored at -70 degrees C prior to their use. All drugs and investigational agents were tested over a range starting from a high concentration at or near the clinical Cmax and decreasing in half-log increments. If the clinical Cmax for an agent had not been determined, the highest concentration tested was 10 microM.
Cell Culture. All cells were maintained in an incubator at 37 degrees C and 5% CO2 with 95% humidity. The PDC lines were cultured according to standard operating procedures established by the NCI PDMR (https://pdmr.cancer.gov/sops/default.htm). Briefly, all PDCs were thawed and cultured in Matrigel-coated flasks prepared with a working solution of 1X Ham's F-12 nutrient mix, without supplementation (Invitrogen, Waltham, MA, cat. 11765054), 100 U/mL penicillin-streptomycin (Invitrogen, cat. 15140122), and 2.5% Matrigel (Corning Inc., Corning, NY, cat. 354248) for the first three passages. All PDCs were cultured in complete DMEM/F-12 media containing advanced DMEM/F-12 (Invitrogen, cat. 12634028), 4.9% defined fetal bovine serum, heat inactivated (HyClone Laboratories Inc., Logan, UT, cat. SH30070.03HI), 389 ng/mL hydrocortisone (Sigma-Aldrich, cat. H4001), 9.7 ng/mL human EGF recombinant protein (Invitrogen, cat. PHG0313), 23.4 microg/mL adenine (Sigma-Aldrich, cat. A2786), 97.3 U/mL penicillin-streptomycin (Invitrogen, cat. 15140122), 1.9 mM L-glutamine (Invitrogen, cat. 25030081), and 9.7 microM Y-27632 dihydrochloride (Tocris Bioscience, Bristol, United Kingdom, cat. 1254). The PDCs were cultured in complete DMEM/F12 media without 9.7 microM Y-27632 dihydrochloride for at least two passages prior to the screen. The established cell line HOP-62 was cultured in RPMI 1640 medium, HEPES (Invitrogen, cat. 22400105) with 10% defined fetal bovine serum (HyClone Laboratories Inc., cat. SH30070.03) and 2 mM L-glutamine (Invitrogen, cat. 25030081). The pooled donor HUVEC were cultured in endothelial cell growth medium 2 (PromoCell, Heidelberg, Germany, cat. C-22011) and the hMSC were cultured in mesenchymal stem cell growth medium 2 (PromoCell, cat. C-28009). For all experiments, HUVEC and hMSC were used at passages </=5, while the malignant cell lines were used at passages </=15. […]

[1] = compound alone, run of 07/12/2021
[2] = compound alone, run of 07/19/2021
[3] = compound alone, run of 07/26/2021
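Wherever IC50 is given: spheroids exposed to agents for seven days before readout.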
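Wherever viability, T/C is given: spheroids exposed to agents for seven days before readout.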

Compound	viability, T/C (compound 0.1 µM)	viability, T/C (compound 0.316 µM)	viability, T/C (compound 1 µM)	viability, T/C (compound 3.16 µM)	viability, T/C (compound 10 µM)	viability, T/C (compound 0.0316 µM)	IC50 (curve of compound)	other results
C=CC(=O)N1CCN(c2nc(=O)n(-c3c(C)ccnc3C(C)C)c3nc(-c4c(O)cccc4F)c(F)cc23)C(C)C1 (stereo not drawn)	23.2% [middle of 17 runs]	22.9% [middle of 17 runs]	22.8% [middle of 17 runs]	27.4% [middle of 17 runs]	32.9% [middle of 17 runs]			IC50 [1]: < 100 nM; IC50 [2]: < 100 nM; IC50 [3]: < 100 nM
C=CC(=O)N1CCN(c2nc(OCC3CCCN3C)nc3c2CCN(c2cccc4cccc(C)c24)C3)CC1CC#N (stereo not drawn)	30.3% [middle of 16 runs]		27.2% [middle of 17 runs]					IC50 [1]: < 31.6 nM; IC50 [2]: < 31.6 nM; IC50 [3]: < 31.6 nM
CC(=O)Nc1cccc(-n2c(=O)n(C3CC3)c(=O)c3c(Nc4ccc(I)cc4F)n(C)c(=O)c(C)c32)c1						42.3% [middle of 5 runs]		viability, T/C (compound 0.0001 µM): 84.8% [middle of 5 runs]; viability, T/C (compound 0.000316 µM): 63.7% [middle of 5 runs]; viability, T/C (compound 0.001 µM): 53.3% [middle of 5 runs]; viability, T/C (compound 0.00316 µM): 49.9% [middle of 4 runs]; viability, T/C (compound 0.01 µM): 47.2% [middle of 5 runs]
CC(=O)OC12COC1CC(O)C1(C)C(=O)C(O)C3=C(C)C(OC(=O)C(O)C(NC(=O)OC(C)(C)C)c4ccccc4)CC(O)(C(OC(=O)c4ccccc4)C21)C3(C)C (stereo not drawn)	46.2% [middle of 5 runs]	46.5% [middle of 5 runs]	53.8% [middle of 5 runs]	55.1% [middle of 5 runs]		46.3% [middle of 5 runs]		viability, T/C (compound 0.01 µM): 53% [middle of 5 runs]
CC(C)NCC(C(=O)N1CCN(c2ncnc3c2C(C)CC3O)CC1)c1ccc(Cl)cc1 (stereo not drawn)	90.6% [middle of 5 runs]	56.5% [middle of 5 runs]	43.8% [middle of 5 runs]		31.9% [middle of 5 runs]	92.1% [middle of 5 runs]	592 nM [middle of 5 runs]	
CC(C)n1nc(-c2ccc3oc(N)nc3c2)c2c(N)ncnc21								viability, T/C (compound 0.000316 µM): 90% [middle of 5 runs]
CC1(C)CCC(CN2CCN(c3ccc(C(=O)NS(=O)(=O)c4ccc(NCC5CCOCC5)c([N+](=O)[O-])c4)c(Oc4cnc5[nH]ccc5c4)c3)CC2)=C(c2ccc(Cl)cc2)C1			51.1% [middle of 5 runs]	11.1% [middle of 5 runs]	5.66% [middle of 5 runs]		918 nM [middle of 5 runs]	
CC1COCCN1c1cc(-c2ccnn2C)c2ccnc(-c3ccn[nH]3)c2n1 (stereo not drawn)	44% [middle of 5 runs]	42% [middle of 5 runs]	35.4% [middle of 5 runs]	33.2% [middle of 5 runs]				
CC1OCC2(CCN(c3cnc(Sc4ccnc(N)c4Cl)c(N)n3)CC2)C1N (stereo not drawn)	48.3% [middle of 19 runs]	38% [middle of 19 runs]		29.8% [middle of 20 runs]		71% and 57.9% and 63.9%	141 nM [middle of 5 runs]	IC50 [2]: < 100 nM
CCN1CCN(Cc2ccc(Nc3ncc(F)c(-c4cc(F)c5nc(C)n(C(C)C)c5c4)n3)nc2)CC1	59.9% [middle of 5 runs]	60.4% [middle of 5 runs]	74.5% [middle of 5 runs]			60.2% [middle of 5 runs]	> 1000 nM	viability, T/C (compound 0.00316 µM): 86.1% [middle of 5 runs]; viability, T/C (compound 0.01 µM): 71.3% [middle of 5 runs]
CCNC(=O)CC1N=C(c2ccc(Cl)cc2)c2cc(OC)ccc2-n2c(C)nnc21 (stereo not drawn)		61.8% [middle of 5 runs]				94% [middle of 5 runs]		
CN(C)C/C=C/C(=O)Nc1cc2c(Nc3ccc(F)c(Cl)c3)ncnc2cc1O[C@H]1CCOC1	62.2% [middle of 5 runs]					57.2% [middle of 5 runs]	> 100 nM	viability, T/C (compound 0.000316 µM): 89.4% [middle of 5 runs]; viability, T/C (compound 0.001 µM): 78.7% [middle of 5 runs]; viability, T/C (compound 0.00316 µM): 63.7% [middle of 5 runs]; viability, T/C (compound 0.01 µM): 61.1% [middle of 5 runs]
CNCc1ccccc1-c1csc(C(C)Nc2nc(C)nc3cc(OC)c(OC)cc23)c1 (stereo not drawn)					0.17% [middle of 15 runs]			IC50 [2]: 112 nM [middle of 5 runs]
COC(=O)c1ccc2c(C(=Nc3ccc(N(C)C(=O)CN4CCN(C)CC4)cc3)c3ccccc3)c(O)[nH]c2c1	77.9% [middle of 5 runs]		68.6% [middle of 5 runs]	69% [middle of 5 runs]	64% [middle of 5 runs]		> 10000 nM	
COc1cc(Nc2ncc3c(n2)-c2ccc(Cl)cc2C(c2c(F)cccc2OC)=NC3)ccc1C(=O)O			63.3% [middle of 5 runs]	55% [middle of 5 runs]	50.9% [middle of 5 runs]			
COc1cc(OC)cc(N(CCNC(C)C)c2ccc3ncc(-c4cnn(C)c4)nc3c2)c1	104% [middle of 5 runs]	92% [middle of 5 runs]						
COc1cc2nc(C)nc(NC(C)c3cc(N)cc(C(F)(F)F)c3)c2cc1OC1CCOC1 (stereo not drawn)								IC50 [2]: < 100 nM and 376 nM and 226 nM
COc1cc2nccc(Oc3ccc(NC(=O)C4(C(=O)Nc5ccc(F)cc5)CC4)cc3)c2cc1OC		83.8% [middle of 5 runs]				97.7% [middle of 5 runs]	> 10000 nM and 2760 nM	outcome (compound 10 µM): inactive
Cn1nccc1Nc1nccc(-c2cc3c(s2)C(C)(C)N(CCN2CCOCC2)C3=O)n1		57.3% [middle of 5 runs]	48.8% [middle of 5 runs]	50.1% [middle of 5 runs]	51.3% [middle of 5 runs]	90.5% [middle of 5 runs]		
Cn1ncnc1[C@H]1c2n[nH]c(=O)c3cc(F)cc(c23)N[C@@H]1c1ccc(F)cc1							> 100 nM	viability, T/C (compound 0.000316 µM): 98.9% [middle of 5 runs]; viability, T/C (compound 0.001 µM): 104% [middle of 5 runs]; viability, T/C (compound 0.00316 µM): 91.5% [middle of 5 runs]; viability, T/C (compound 0.01 µM): 93.2% [middle of 5 runs]
O=C(c1cc(Cc2n[nH]c(=O)c3ccccc23)ccc1F)N1CCN(C(=O)C2CC2)CC1	96.4% [middle of 5 runs]	92.6% [middle of 5 runs]			82% [middle of 5 runs]		> 10000 nM	

Reference: PubChem BioAssay AID1963862 (Molecular Pharmacology Branch, DTP, NCI, 2024)
